Data published in ChEMBL document CHEMBL1127158, “1,3-dithianes with acid functionalities: potent inhibitors and candidate affinity probes for the gaba-gated chloride channel” (Bioorg Med Chem Lett, 1993).

Target: GABA-A receptor; anion channel
Assay: Inhibition of [3H]EBOB binding at GABA-gated chloride channel NCB site in bovine brain membranes
Format: cell membranes, Bos taurus

SMILES	IC50
CC(C)(C)C1CSC(c2ccc(C#CCO)cc2)SC1 (centres undefined)	76 nM
CC(C)(C)C1CSC(c2ccc(C#CCCC(=O)C=[N+]=[N-])cc2)SC1 (centres undefined)	830 nM
CC(C)(C)C1CSC(c2ccc(C#CCCCO)cc2)SC1 (centres undefined)	410 nM
CCC#Cc1ccc(C2SCC(C(C)(C)C)CS2)cc1 (centres undefined)	690 nM
CC(C)(C)C1CSC(c2ccc(C#CC(=O)C=[N+]=[N-])cc2)SC1 (centres undefined)	690 nM
CCCC#Cc1ccc(C2SCC(C(C)(C)C)CS2)cc1 (centres undefined)	6700 nM
CC#Cc1ccc(C2SCC(C(C)(C)C)CS2)cc1 (centres undefined)	35 nM
CC(C)(C)C1CSC(c2ccc(C#CCCP(=O)(O)O)cc2)SC1 (centres undefined)	10 nM
CC(C)(C)C1CSC(c2ccc(C#CCC(=O)O)cc2)SC1 (centres undefined)	23 nM
CCOC(=O)CC#Cc1ccc(C2SCC(C(C)(C)C)CS2)cc1 (centres undefined)	460 nM
CC(O)C#Cc1ccc(C2SCC(C(C)(C)C)CS2)cc1 (centres undefined)	3100 nM
COC(=O)C#Cc1ccc(C2SCC(C(C)(C)C)CS2)cc1 (centres undefined)	9 nM
C#Cc1ccc(C2SCC(C(C)(C)C)CS2)cc1 (centres undefined)	21 nM
CCOP(=O)(CCC#Cc1ccc(C2SCC(C(C)(C)C)CS2)cc1)OCC (centres undefined)	3000 nM
COC(=O)CCC#Cc1ccc(C2SCC(C(C)(C)C)CS2)cc1 (centres undefined)	17 nM
CC(C)(C)C1CSC(c2ccc(C#CCCC(=O)O)cc2)SC1 (centres undefined)	5 nM
CC(C)(O)C#Cc1ccc(C2SCC(C(C)(C)C)CS2)cc1 (centres undefined)	> 10000 nM
CC(C)(C)C1CSC(c2ccc(C#CCCO)cc2)SC1 (centres undefined)	400 nM
CC(C)(C)C1CSC(c2ccc(C#CC(=O)O)cc2)SC1 (centres undefined)	7 nM
